According to patent publication US20120225921A1, “METHOD OF CONTROLLING PHYTOPATHOGENIC DISEASES ON TURFGRASS” (SYNGENTA CROP PROTECTION, LLC, priority 2006, published 2012):

Experiments:
Format in all cases: in vivo
Sclerotinia homoeocarpa [1] = assay: Control of Sclerotinia homoeocarpa on Creeping Bentgrass (Example B-1, plot spray treatment); conditions: 500 g ai/ha, sprayed three times every 14 days, assessed 19 days after last treatment, vs untreated (60% diseased)
Experimental: The following EC formulations were prepared: […]
(§1) Plots were inoculated with Creeping Bentgrass (Agrostis palustris Huds.) seeds infested with Sclerotinia homoeocarpa, and a quantity of formulations A and B which corresponds to a dose shown in the table below and expressed in g/ha was sprayed on the plots. This treatment was repeated three times at an interval of 1 treatment every 14 days. 19 days after the last treatment, the disease incidence and severity was assessed visually. […] Disease control is shown as % disease control compared to untreated Creeping Bentgrass.

Sclerotinia homoeocarpa [2] = assay: Control of Sclerotinia homoeocarpa on Kentucky Bluegrass (Example B-2, plot spray treatment); conditions: 500 g ai/ha, sprayed three times every 14 days, assessed 19 days after last treatment, vs untreated (58% diseased)
Experimental: as §1, with “Kentucky Bluegrass (Poa pratensis L.)” for “Creeping Bentgrass (Agrostis palustris Huds.)”, “Kentucky Bluegrass.” for “Creeping Bentgrass.”

[3] = test system: Colletotrichum graminicola; assay: Control of Colletotrichum graminicola on Annual Bluegrass/Creeping Bentgrass (Example B-3); conditions: 500 g ai/ha; application interval 21 days, three sprays; assessed 10 days after final application; Poa/Bentgrass, natural infection; vs untreated (44% diseased)
Experimental: The following EC formulation was prepared: […]
Plots of a mixture of Annual Bluegrass (Poa annua) and Creeping Bentgrass (Agrostis stolifera) naturally infected with anthracnose (Colletotrichum graminicola) were treated with quantities of formulation C which correspond to a dose shown in the table below and expressed in g ai/ha. The dose corresponding to 250 g ai/ha was sprayed four times with an interval of 14 days. The dose corresponding to 500 g ai/ha was sprayed three times with an interval of 21 days. At 23 days after the final application with the 250 g ai/ha dose, and 10 days after the final application with the 500 g ai/ha dose, disease severity was assessed visually. […] Disease control is shown as % disease control compared to untreated plots.

Rhizoctonia solani = assay: Control of Rhizoctonia solani on Colonial Bentgrass (Example B-4); conditions: 302 g ai/ha, application interval 14 days, three sprays, assessed 21 days after final application, natural infection, vs untreated (80% diseased)
Experimental: Plots of Colonial Bentgrass (Agrostis tenius Sibth.) naturally infected with brown patch (Rhizoctonia solani) were treated with quantities of formulation C which correspond to a dose shown in the table below and expressed in g ai/ha. The dose corresponding to 302 g ai/ha was sprayed three times with an interval of 14 days. The dose corresponding to 604 g ai/ha was sprayed two times with an interval of 28 days. At 21 days after the final application of both dose rates, disease severity was assessed visually. […] Disease control is shown as % disease control compared to untreated plots.

| SMILES | % Disease Control (Sclerotinia homoeocarpa [1]) [%] | % Disease Control (Sclerotinia homoeocarpa [2]) [%] | % Disease Control [3] [%] | % Disease Control (Rhizoctonia solani) [%] |
| --- | --- | --- | --- | --- |
| CC(C)C1C2CCC1c1c(NC(=O)c3cn(C)nc3C(F)F)cccc12 (racemic) [Compound IAc] | 93 | 88 | 92 | 97 |
| CC(C)CC(C)c1sccc1NC(=O)c1cn(C)nc1C(F)(F)F (stereo not drawn) [Penthiopyrad, N-[2-(1,3-dimethylbutyl)-3-thienyl]-1-methyl-3-(trifluoromethyl)-1H-pyrazole-4-carboxamide, reference compound] | 57 | 21 |  |  |
